Test results published in patent publication US12612424B2, “HPK1 inhibitors and uses thereof” (Regor Pharmaceuticals, Inc., priority 2019, dated 2026).
Where two headings read alike, the source gives them in different places.

Experiments:
[1] = molecular target: T1, JAK3 (Homo sapiens, UniProt P52333); assay: JAK3 biochemical assay (ADP-GLO Kinase Assay); conditions: for JAKs/HPK1 IC50 Ratio, B* / JAKs/HPK1 IC50 Ratio, N*: ratio of JAK3 IC50 to HPK1 IC50; for JAKs/HPK1 IC50 Ratio, B*: first testing facility; for JAKs/HPK1 IC50 Ratio, N*: second testing facility
T1 construct: purchased Thermo fisher PV3855
T1 sequence (P52333 781-1124 limits assumed): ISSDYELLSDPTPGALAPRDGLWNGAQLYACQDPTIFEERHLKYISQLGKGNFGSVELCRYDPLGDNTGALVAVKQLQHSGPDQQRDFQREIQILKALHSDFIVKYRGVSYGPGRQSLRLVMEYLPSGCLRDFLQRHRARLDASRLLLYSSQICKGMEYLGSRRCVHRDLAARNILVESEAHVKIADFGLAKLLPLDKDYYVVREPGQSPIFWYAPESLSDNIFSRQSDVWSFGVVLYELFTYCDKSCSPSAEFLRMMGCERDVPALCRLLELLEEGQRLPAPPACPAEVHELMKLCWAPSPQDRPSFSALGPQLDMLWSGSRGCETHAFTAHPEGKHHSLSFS
Method: Biology Example 4 JAK3 Biochemical Assay
This example used the ADP-GLO™ Kinase Assay to measure the effect of potential HPK1 inhibitor compounds on JAK3 kinase activity. An exemplary experimental setting is described below, though minor adjustments can be made in individual assays.
3. Procedures • 1. Prepare JAK3 kinase buffer • Freshly adding DTT and BSA into Buffer (Final Conc.: 40 mM Tris pH7.5; 20 mM MgCl2, 0.1 mg/ml BSA, 50 μM DTT).
• 2. Compounds Preparation • For tested compounds: compounds were diluted to 1 mM, by mixing 5 μL of 10 mM compound stocks to 45 μL DMSO. The compounds solutions were then serially diluted 3-fold for 10 doses. The top compound concentration was 1 mM (100×), DMSO concentration was 100%. • 50 nL of each of 10 doses of diluted compound were added to 384-well assay plate (Corning #4512) by ECHO. • For positive control, 50 nL of 1 mM reference compound were added to 384-well assay plate (Corning #4512) by ECHO. • For negative control: 50 nL of DMSO was transferred into 384-well assay plate as a negative control. • The assay plate was centrifuged at 1,500 rpm for 1 minute. • 3. Compounds were Transferred by ECHO Following the Layout Below: • Reference and test compounds 1-15: serial 3-fold dilution from 10 μM to 0.508 nM (10 doses); negative control is 0.78 ng JAK3, 4 μM ATP & 0.2 μg/μL poly, 1% DMSO; positive control is the top dose of the reference compound, 0.78 ng JAK3, 0.2 μg/μL Poly(E4Y1), 4 μMATP, 1% DMSO. • 4. Add 2.5 μL/well of 2×JAK3 working solution using pipette (Thermo, 30 μL multi-channel), Centrifuge at 1,500 rpm for 1 minute. • 5. Add 2.5 μL/well of 2×ATP-Poly(E4Y1) working mixture using pipette (Thermo, 30 μL multi-channel), Centrifuge at 1,500 rpm for 1 minute. • 6. Incubate the assay plate at 25° C. for 60 min. • 7. Add 5 μL/well ADP-GLO™ Reagent by BRAVO to stop the kinase reaction and deplete the unconsumed ATP after 1 hour. Centrifuge at 1,500 rpm for 1 minute. Incubate at 25° C. for 40 min. • 8. Add 10 uL of Kinase Detection Reagent by BRAVO to convert ADP to ATP. Centrifuge at 1,500 rpm for 1 minute. Incubate at 25° C. for 40 min. • 9. Record luminescence signal on an Envision plate reader (384-USL). • 10. Process data using XL-fit. Inhibition %=[1-(test well−Negative control)/(positive control−Negative control)]*100%. 5. Data Analysis
The percent (%) inhibition at each concentration of compound is calculated based on and relative to the signal in the Negative and Positive control wells contained within each assay plate. The Negative control wells served as 0% inhibition, and the Positive control wells served as 100% inhibition. The concentrations and % inhibition values for tested compounds are plotted and the concentration of compound required for 50% inhibition (IC50) is determined with a Three-parameter logistic dose response equation. The endpoint value (IC50) for the reference peptide/compound is evaluated in each experiment as a quality control measure. If the endpoint value was within 3-fold of the expected value then the experiment was deemed acceptable.

[2] = molecular target: HPK1 (Homo sapiens, UniProt Q92918); assay: HPK1 biochemical assay (ADP-GLO Kinase Assay)
Chain of HPK1 (Q92918 whole entry): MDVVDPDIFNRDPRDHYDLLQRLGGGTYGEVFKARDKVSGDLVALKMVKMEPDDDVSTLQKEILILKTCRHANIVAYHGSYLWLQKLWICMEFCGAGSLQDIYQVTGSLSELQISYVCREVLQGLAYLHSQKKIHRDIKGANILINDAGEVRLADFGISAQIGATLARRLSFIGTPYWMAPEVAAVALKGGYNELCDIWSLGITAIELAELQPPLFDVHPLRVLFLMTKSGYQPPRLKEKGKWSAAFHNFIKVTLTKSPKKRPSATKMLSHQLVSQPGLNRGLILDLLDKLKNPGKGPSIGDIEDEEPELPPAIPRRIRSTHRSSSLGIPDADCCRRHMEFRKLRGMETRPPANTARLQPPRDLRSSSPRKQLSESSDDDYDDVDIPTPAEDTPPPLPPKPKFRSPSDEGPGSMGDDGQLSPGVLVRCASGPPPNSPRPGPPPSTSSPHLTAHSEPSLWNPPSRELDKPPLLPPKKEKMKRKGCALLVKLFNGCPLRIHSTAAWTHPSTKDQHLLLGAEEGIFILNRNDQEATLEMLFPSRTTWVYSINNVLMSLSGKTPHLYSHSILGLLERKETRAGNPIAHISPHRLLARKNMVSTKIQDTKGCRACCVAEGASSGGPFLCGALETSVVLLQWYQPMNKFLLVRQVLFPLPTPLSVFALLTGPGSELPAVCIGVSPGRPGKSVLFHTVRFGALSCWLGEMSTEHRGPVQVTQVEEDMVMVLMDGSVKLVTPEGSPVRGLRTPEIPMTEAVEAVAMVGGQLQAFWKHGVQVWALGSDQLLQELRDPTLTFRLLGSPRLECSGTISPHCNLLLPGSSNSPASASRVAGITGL
From the text: IC50 values of any compounds can be determined accordingly over a range of inhibitor concentrations. In addition, the inhibitory effect of the compounds can also be assess using a biological assay, to determine the effect of the compounds on cytokine secretion by T cells following TCR and CD28 stimulation.
Biology Example 1 HPK1 Biochemical Assay
This example used the ADP-GLO™ Kinase Assay to measure the effect of potential HPK1 inhibitor compounds on HPK1 kinase activity.
The ADP-GLO™ Kinase Assay (Promega Corp., Madison, WI) measures ADP formed from a kinase reaction. According to the manufacture, the ADP formed in a kinase assay is first converted into ATP, which is then used to generate light in a luciferase reaction. The luminescence generated correlates with kinase activity. An exemplary experimental setting is described below, though minor adjustments can be made in individual assays.
Serial 3-fold dilution of compounds from 10 μM (top concentration) to 0.508 nM (lowest concentration). Positive control is 10 μM Reference+enzyme+substrate. Negative control is 1% DMSO+enzyme+substrate.
• 1. Buffer Preparation • 40 mM Tris pH7.5; 20 mM MgCl2, 0.1 mg/ml BSA, 50 μM DTT Buffer Stock
Add 20 mL 1M Tris and 10 mL 1M MgCl2 to 470 mL ddH2O to get buffer stock, and stock at RT. • 2. Preparing Fresh 1* Assay Buffer
• 3. Compounds Preparation • 1) The compounds were diluted to 1 mM, by mixing 10 μL of 10 mM respective compound stocks with 90 μL of DMSO. • 2) The compounds were then diluted 3-fold for 10 doses (5 μL to 10 μL dilution) by BRAVO. The top compound conc. was 1 mM (100×), DMSO Conc. was 100%. • 3) Transfer 100 nL of each diluted compound sample to 384-well plate (Corning-4512) by ECHO. • 4) Centrifuge the plate at 1,500 rpm for 1 minute. • 4. Preparation of 2×ATP-MBP Mixture: • 20 μM ATP, 0.2 μg/μL MBP in Kinase Buffer (final concentration: 10 μM ATP, 0.1 MBP)
• 5. Preparation of 2×HPK1 working solution with assay buffer. • HPK1 final concentration was 0.6 ng/μL. […] Incubate at 25° C. for 40 min. • 11. Record luminescence signal on an Envision plate reader (384-CTG). 5. Data Analysis
The percent (%) inhibition at each concentration of compound is calculated based on and relative to the signal in the High and Low control wells contained within each assay plate. […] The concentrations and % inhibition values for tested compounds were plotted and the concentration of compound required for 50% inhibition (IC50) was determined with a Three-parameter logistic dose response equation. The endpoint value (IC50) for the reference peptide/compound was evaluated in each experiment as a quality control measure. If the endpoint value was within 3-fold of the expected value, then the experiment was deemed acceptable.

[3] = B*: testing performed in a first testing facility, read-out: JAK3 IC50 (nM) Relative, B*
[4] = B*: testing performed in a first testing facility, read-out: HPK1 IC50 (nM) Relative, B*
[5] = N*: testing performed in a second testing facility, read-out: JAK3 IC50 (nM) Relative, N*
[6] = N*: testing performed in a second testing facility, read-out: HPK1 IC50 (nM) Relative, N*

| Structure (SMILES) | IC50 [1, 3] | JAKs/HPK1 IC50 Ratio, B* [1] | IC50 [2, 4] | IC50 [1, 5] | JAKs/HPK1 IC50 Ratio, N* [1] | IC50 [2, 6] |
| --- | --- | --- | --- | --- | --- | --- |
| COc1cc2c(cc1Nc1ncc3ccn(-c4cccnc4C)c3n1)CN(C)CC2 [Example 41, 6-Methoxy-2-methyl-N-(7-(2-methylpyridin-3-yl)-7H-pyrrolo[2,3-d]pyrimidin-2-yl)-1,2,3,4-tetrahydroisoquinolin-7-amine] | 100 to 500 nM | 30 | ≤ 100 nM |  |  |  |
| COc1cc2c(cc1Nc1ncc3ncn(-c4ccccc4)c3n1)CN(C)CC2 [Example 43, 6-Methoxy-2-methyl-N-(9-phenyl-9H-purin-2-yl)-1,2,3,4-tetrahydroisoquinolin-7-amine] |  |  | > 1000 nM | > 1000 nM | >10 | > 1000 nM |
| COc1cc2c(cc1Nc1ncc3ncn(-c4ccccc4C(=O)N(C)C)c3n1)CN(C)CC2 [Example 44, 2-(2-((6-Methoxy-2-methyl-1,2,3,4-tetrahydroisoquinolin-7-yl)amino)-9H-purin-9-yl)-N,N-dimethylbenzamide] |  |  | > 1000 nM | > 1000 nM | >10 | > 1000 nM |
| COc1cc2c(cc1Nc1ncc3c(n1)N(c1ccccc1P(C)(C)=O)CCO3)CN(C)CC2 [Example 47, (2-(2-((6-Methoxy-2-methyl-1,2,3,4-tetrahydroisoquinolin-7-yl)amino)-6H-pyrimido[5,4-b][1,4]oxazin-8(7H)-yl)phenyl)dimethylphosphine oxide] | > 1000 nM | >22 | 100 to 500 nM |  |  |  |
| COc1cc2c(cc1Nc1ncc(Cl)c(-c3cncc4ccccc34)n1)CN(C)CC2 [Example 48, N-(5-chloro-4-(isoquinolin-4-yl)pyrimidin-2-yl)-6-methoxy-2-methyl-1,2,3,4-tetrahydroisoquinolin-7-amine] | > 1000 nM | >179 | ≤ 100 nM |  |  |  |
| CCc1c[nH]c2ncc(-c3ccc(C)c(P(C)(C)=O)c3)cc12 [Example 50, (5-(3-Ethyl-1H-pyrrolo[2,3-b]pyridin-5-yl)-2-methylphenyl)dimethylphosphine oxide] | > 1000 nM | 163 | ≤ 100 nM | > 1000 nM | 101 | ≤ 100 nM |
| CCc1c[nH]c2ncc(-c3ccc(F)c(P(C)(C)=O)c3)cc12 [Example 51, (5-(3-Ethyl-1H-pyrrolo[2,3-b]pyridin-5-yl)-2-fluorophenyl)dimethylphosphine oxide] | > 1000 nM | 51 | ≤ 100 nM |  |  |  |
| CCc1c[nH]c2ncc(-c3ccc(O)c(P(C)(C)=O)c3)cc12 [Example 55, (5-(3-Ethyl-1H-pyrrolo[2,3-b]pyridin-5-yl)-2-hydroxyphenyl)dimethylphosphine oxide] | 100 to 500 nM | 20 | ≤ 100 nM |  |  |  |
| CCc1c[nH]c2ncc(-c3cc(N)cc(P(C)(C)=O)c3)cc12 [Example 57, (3-Amino-5-(3-ethyl-1H-pyrrolo[2,3-b]pyridin-5-yl)phenyl)dimethylphosphine oxide] | 500 to 1000 nM | 22 | ≤ 100 nM |  |  |  |
| CCc1c[nH]c2ncc(-c3ccc(NC(C)=O)c(P(C)(C)=O)c3)cc12 [Example 58, N-(2-(dimethylphosphoryl)-4-(3-ethyl-1H-pyrrolo[2,3-b]pyridin-5-yl)phenyl)acetamide] | 100 to 500 nM | 4 | ≤ 100 nM |  |  |  |
| CCc1c[nH]c2ncc(-c3ccc(F)c(P(C)(C)=O)c3N)cc12 [Example 60, (2-Amino-3-(3-ethyl-1H-pyrrolo[2,3-b]pyridin-5-yl)-6-fluorophenyl)dimethylphosphine oxide] | > 1000 nM | 25 | ≤ 100 nM |  |  |  |
| CCc1c[nH]c2ncc(-c3ccc(C(F)F)c(P(C)(C)=O)c3)cc12 [Example 61, (2-(Difluoromethyl)-5-(3-ethyl-1H-pyrrolo[2,3-b]pyridin-5-yl)phenyl)dimethylphosphine oxide] | > 1000 nM | 15 | 100 to 500 nM |  |  |  |

Next, values leading:

| IC50 [1, 3] | JAKs/HPK1 IC50 Ratio, B* [1] | IC50 [2, 4] | IC50 [1, 5] | JAKs/HPK1 IC50 Ratio, N* [1] | IC50 [2, 6] | Structure (SMILES) |
| --- | --- | --- | --- | --- | --- | --- |
| > 1000 nM | 54 | ≤ 100 nM |  |  |  | CCc1c[nH]c2ncc(-c3ccc(C)c(P(C)(C)=O)c3F)cc12 [Example 62, (3-(3-Ethyl-1H-pyrrolo[2,3-b]pyridin-5-yl)-2-fluoro-6-methylphenyl)dimethylphosphine oxide] |
| > 1000 nM | 19 | 100 to 500 nM |  |  |  | CCc1c[nH]c2ncc(-c3ccc(-c4ncco4)c(P(C)(C)=O)c3)cc12 [Example 63, (5-(3-Ethyl-1H-pyrrolo[2,3-b]pyridin-5-yl)-2-(oxazol-2-yl)phenyl)dimethylphosphine oxide] |
| > 1000 nM | 44 | ≤ 100 nM |  |  |  | CCc1c[nH]c2ncc(-c3ccc(C)c(P(C)(C)=O)n3)cc12 [Example 64, (6-(3-Ethyl-1H-pyrrolo[2,3-b]pyridin-5-yl)-3-methylpyridin-2-yl)dimethylphosphine oxide] |
| > 1000 nM | >10 | 500 to 1000 nM |  |  |  | CCc1c[nH]c2ncc(-c3ccc(CN(C)C)c(P(C)(C)=O)c3)cc12 [Example 65, (2-((Dimethylamino)methyl)-5-(3-ethyl-1H-pyrrolo[2,3-b]pyridin-5-yl)phenyl)dimethylphosphine oxide] |
| > 1000 nM | 3 | 100 to 500 nM |  |  |  | CCc1c[nH]c2ncc(-c3ccc(N4CCCC4=O)c(P(C)(C)=O)c3)cc12 [Example 66, 1-(2-(Dimethylphosphoryl)-4-(3-ethyl-1H-pyrrolo[2,3-b]pyridin-5-yl)phenyl)pyrrolidin-2-one] |
